Measurements as given in BindingDB's records for doi:10.1021/jm00108a008 (University of Minnesota, 1991).
pKi: −log10 of the molar value.

Tests used:
[1] = Binding affinity against Opioid receptor delta 1 was measured in the guinea pig brain membranes using [3H]DADLE in the presence of 1 uM unlabeled DAMGO as radioligand
[2] = as above; remark: listed apart in the source

| SMILES | pKi [1] | pKi [2] |
| --- | --- | --- |
| Oc1ccc2c3c1O[C@H]1C4=C(C[C@@]5(O)C(C2)N(CC2CC2)CC[C@]315)C(c1ccccc1)C1=C(O4)[C@@H]2Oc3c(O)ccc4c3[C@@]23CCN(CC2CC2)C(C4)[C@]3(O)C1 (some centres not stated) [bis(4-cyclopropylmethyl-12-oxa-4-azapentacyclo[9.6.1.01,13.05,17.07,18]octadeca-7(18),8,10,14-tetraene-10,17-diol)4-phenyl-4H-pyran] | 8.00 |  |
| Oc1ccc2c3c1O[C@H]1c4sc5c(c4C[C@@]4(O)C(C2)N(CC2CC2)CC[C@]314)C[C@@]1(O)C2Cc3ccc(O)c4c3[C@@]1(CCN2CC1CC1)[C@H]5O4 [bis(4-cyclopropylmethyl-12-oxa-4-azapentacyclo[9.6.1.01,13.05,17.07,18]octadeca-7(18),8,10,14-tetraene-10,17-diol)thiphene] |  | 7.11 |
